Measurements published in ChEMBL document CHEMBL1152889, “Melatonin: Quantum-chemical and biochemical investigation of antioxidant activity” (2009).

Experiments:
Homo sapiens [1] = assay: Antioxidant activity against lipid peroxidation in chronic renal failure patient plasma assessed as malondialdehyde level at 2 mg/kg treated once day before night sleep measured after 1 month by thiobarbituric acid based spectrophotometry (Rvb=2.68 +/- 0.44 umol/L); type: functional
Homo sapiens [2] = assay: Antioxidant activity against lipid peroxidation in chronic renal failure patient plasma assessed as reduction in malondialdehyde level at 2 mg/kg treated once day before night sleep by thiobarbituric acid based spectrophotometry (Rvb=2.68 +/- 0.44 umol/L); type: functional, organism-based; set-up: dose 2 mg/kg; conditions: TDE = time-dependent effect
Homo sapiens [3] = assay: Antioxidant activity against lipid peroxidation in chronic renal failure patient plasma assessed as malondialdehyde level at 2 mg/kg treated once day before night sleep measured after 2 months by thiobarbituric acid based spectrophotometry (Rvb=2.68 +/- 0.44 umol/L); type: functional
Homo sapiens [4] = assay: Antioxidant activity against lipid peroxidation in chronic renal failure patient plasma assessed as malondialdehyde level at 2 mg/kg treated once day before night sleep measured after 3 months by thiobarbituric acid based spectrophotometry (Rvb=2.68 +/- 0.44 umol/L); type: functional

SMILES: COc1ccc2[nH]cc(CCNC(C)=O)c2c1 [MELATONIN]
- Activity (Homo sapiens [1]): 4.02 µM
- Activity (Homo sapiens [2]): tde
- Activity (Homo sapiens [3]): 3.09 µM
- Activity (Homo sapiens [4]): 2.79 µM
